Assay results: US4704397A, “Pharmaceutical salts of 4-(9-acridinyl-amino) methanesulfon-m-anisidide” (Warner-Lambert Company, priority 1981, dated 1987)
Where two headings read alike, the source gives them in different places.

How the values were obtained:
mice = conditions: studies using mice; cited from earlier work
[1] = type: physicochemical; conditions: warming to room temperature and shaking
Source text: The salts of the present invention allow one to prepare solutions of m-AMSA without the aid of dimethylacetamide. Depending upon the salt, concentration and temperature,standing may result in certain of the solutions of salts forming gels. However, a salt need only remain in solution for a period long enough for it to be administered to a patient.
Stability of Preferred --m-AMSA Salts

SMILES	activity in treating mammals (mice)	return of gelled solution to fluid state ([1]; 10 mg/ml after storing at 5 °C)	return of gelled solution to fluid state ([1]; lower concentrations gelled at 5 °C)
COc1cc(NS(C)(=O)=O)ccc1Nc1c2ccccc2nc2ccccc12 [m-AMSA, 4'-(9-acridinylamino)methanesulfon-m-anisidide]	high degree of activity	–	–
COc1cc(NS(C)(=O)=O)ccc1Nc1c2ccccc2nc2ccccc12 [gluconate, 4'-(9-acridinylamino)methanesulfon-m-anisidide D-gluconate]	–	could not be achieved	could be returned to a fluid state
